Assays:
ERK1/2 = assay: Phospho-ERK1/2 Western blot in cardiomyocytes; type: cell-based, rat; conditions: cardiomyocytes; for effect on ERK phosphorylation/activation by rPMT: rPMT 400 ng/ml 24 hr
Protocol: (§1) rPMT promotes the activation of ERK1/2, JNK and p38-MAPK cascades. Incubations were for 24 hr in the presence of the indicated concentrations of rPMT. PMA (100 nM, 5 min) and sorbitol ([…], 5 min) were included as positive controls. Cell lysates were subjected to SDS-PAGE followed by Western blotting as described in Methods below. Phosphorylated forms of ERK1/2 (A), p38 MAP kinase (B) or JNK (C) were detected by specific anti-phospho-ERK1/2, -p38 MAP kinase or -JNK antibodies, respectively. Blots were stripped and subjected to immunoblot analysis with total ERK1/2 or p38 MAP kinase to normalize for minor variations in protein loading (Panels A and B). Top: representative autoradiograms (with each lane from a single gel exposed for the same duration). Bottom: quantification of each series of experiments (n=3).
(§2) rPMT transactivation of the EGF receptor in cardiac fibroblasts, but not cardiomyocytes. Neonatal rat cardiomyocytes (Panel A) and cardiac fibroblasts (Panel B) were treated with rPMT (400 ng/ml) for 24 hr or EGF (50 ng/ml) for 5 min without or with AG1478 (2 μM, starting 30 min prior to stimulation). Cell lysates were subjected to SDS-PAGE followed by Western blotting with the anti-phospho-ERK1/2 antibody. Data are from a representative gel, with similar results obtained in 3 separate experiments.
Specific immunoreactivity for individual PKC isoforms was quantified according to methods described previously. For assays of MAPKs and AKT, cells were exposed to test agents as indicated in individual experimental protocols, washed three times with ice-cold calcium/magnesium-free Dulbecco's PBS (pH 7.1), scraped into ice-cold extraction buffer [20 mM β-glycerophosphate pH 7.5, 20 mM sodium fluoride, 2 mM EDTA, 0.2 mM sodium vanadate, 10 μg/ml aprotinin, 25 μg/ml leupeptin, 50 μg/ml PMSF, and 0.3% (v/v) β-mercaptoethanol], lysed by sonication, and centrifuged at 10,000 g for 10 min at 4° C. […] Bands were detected by enhanced chemiluminescence and blots were quantified by laser scanning densitometry.

[1] = system: ERK1/2 in cardiac fibroblasts; assay: Phospho-ERK1/2 Western blot in cardiac fibroblasts; type: cell-based, rat; conditions: AG1478 2 μM
Protocol: as §2
Cardiac myocytes were dissociated from the ventricles of two-day-old Wistar rats by a trypsin digestion protocol which incorporates a differential attachment procedure to enrich for cardiac myocytes, as described previously (13). For some experiments, attached cells were maintained as fibroblast cultures. For studies of inositol phosphates, MAPKs, AKT, and PKC cardiomyocytes were plated at a density of 5×10^5 cells per ml (2 ml per 35-mm dish; 1 ml per 22.1-mm dish) and were cultured in MEM supplemented with 10% fetal calf serum. […]
(§3) Specific immunoreactivity for individual PKC isoforms was quantified according to methods described previously. […] Bands were detected by enhanced chemiluminescence and blots were quantified by laser scanning densitometry.

PKC-ε = target: T1, PKC-ε (Rattus norvegicus, UniProt P09216); assay: Western blot with anti-phospho-PKC antibody in cardiomyocytes; type: cell-based
T1 construct: PKCε is detected as a single band in quiescent cardiomyocytes; endogenous in cells; host or cells: cultured neonatal rat ventricular cardiomyocytes
T1 sequence (P09216 1-737): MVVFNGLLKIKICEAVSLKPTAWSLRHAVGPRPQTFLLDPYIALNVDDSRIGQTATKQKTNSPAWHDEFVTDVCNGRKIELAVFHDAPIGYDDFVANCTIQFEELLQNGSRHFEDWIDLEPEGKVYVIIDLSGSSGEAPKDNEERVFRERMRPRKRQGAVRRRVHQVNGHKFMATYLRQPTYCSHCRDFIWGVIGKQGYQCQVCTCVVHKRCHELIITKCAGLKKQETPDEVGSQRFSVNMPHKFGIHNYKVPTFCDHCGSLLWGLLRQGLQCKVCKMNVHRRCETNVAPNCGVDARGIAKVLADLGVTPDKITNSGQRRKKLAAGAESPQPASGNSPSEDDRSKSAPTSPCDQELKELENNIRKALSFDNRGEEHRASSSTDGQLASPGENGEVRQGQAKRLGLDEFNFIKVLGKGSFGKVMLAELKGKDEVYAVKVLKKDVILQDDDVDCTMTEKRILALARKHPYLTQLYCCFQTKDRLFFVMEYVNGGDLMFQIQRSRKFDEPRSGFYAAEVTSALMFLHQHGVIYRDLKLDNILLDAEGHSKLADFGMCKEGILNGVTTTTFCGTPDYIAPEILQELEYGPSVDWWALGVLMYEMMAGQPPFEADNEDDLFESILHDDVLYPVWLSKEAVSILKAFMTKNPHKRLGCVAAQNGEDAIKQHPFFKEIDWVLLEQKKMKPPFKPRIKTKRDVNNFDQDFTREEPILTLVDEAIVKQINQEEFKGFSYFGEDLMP
Protocol: (§4) rPMT selectively activates nPKC isoforms. Cardiomyocyte cultures were incubated in culture medium without or with NE (10 μM), rPMT (400 ng/ml) or PMA (100 nM) for 24 hr (Panels A and C) or 5 min (Panel B). Soluble extracts were prepared and separated by SDS-PAGE followed by immunodetection of total PKC isoform abundance with antibodies that are specific for the individual PKC isoforms (Panel A), or phosphorylated forms of PKC (largely PKCε) with a pan-phospho-PKC antibody (Panels B and C), as described in Methods below. GF109203 was included at 5 μM 30 min prior to stimulation as indicated.
(§5) Specific immunoreactivity for individual PKC isoforms was quantified according to methods described previously. For assays of MAPKs and AKT, cells were exposed to test agents as indicated in individual experimental protocols, washed three times with ice-cold calcium/magnesium-free Dulbecco's PBS (pH 7.1), scraped into ice-cold extraction buffer [20 mM β-glycerophosphate pH 7.5, 20 mM sodium fluoride, 2 mM EDTA, 0.2 mM sodium vanadate, 10 μg/ml aprotinin, 25 μg/ml leupeptin, 50 μg/ml PMSF, and 0.3% (v/v) β-mercaptoethanol], lysed by sonication, and centrifuged at 10,000 g for 10 min at 4° C. The supernatant was diluted in SDS-PAGE sample buffer, boiled for 5 min, and stored at −70° C. Western blot analysis was performed with antibodies that are selective for the phosphorylated (activated) forms of ERK1/2, p38-MAPK, JNK, AKT, and pan-PKC according to manufacturer's instructions. For each panel in each Figure, the results are from a single gel exposed for a uniform duration. Bands were detected by enhanced chemiluminescence and blots were quantified by laser scanning densitometry.

PKC isoforms = assay: Immunoblot of PKC isoform partitioning and down-regulation in cardiomyocytes; type: cell-based, rat; conditions: 24 hr experiments
Protocol: as §4, with “Cardiomyocyte cultures were incubated in culture medium without or with NE (10 μM), rPMT (400 ng/ml) or PMA (100 nM) for 24 hr (Panels A and C) or 5 min (Panel B).” left out
Cells were maintained in culture in the presence of 10% FCS for 96 hr and then switched to serum-free medium for 24 hr prior to the addition of agonists as indicated. For PKC, extracts were prepared and subjected to SDS-PAGE to resolve individual isoforms according to methods described previously (14).
as §3

AKT = assay: Phospho-AKT and total AKT Western blot in cardiomyocytes; type: cell-based, rat
Protocol: rPMT decreases basal AKT phosphorylation and prevents its phosphorylation by EGF. Neonatal rat cardiomyocytes were treated with rPMT (400 ng/ml) for 24 hr (Panel A), 48 hr (Panel B) or with EGF (50 ng/ml) for 5 min. Cell lysates were subjected to SDS-PAGE followed by Western blotting with antibodies that recognize the phosphorylated form or total AKT. Data are from representative gels, with similar results obtained in 3 separate experiments.
Panel A: Cells were treated with norepinephrine (NE, 10 μM) or PMA (100 nM) for 5 min without or with GF109203 (5 μM).
Panel B: Cells were treated with rPMT (400 ng/ml), NE (10 μM) or PMA (100 nM) for 24 hr without or with Go6983 (5 μM). […] Cell lysates were subjected to SDS-PAGE followed by Western blotting using a specific anti-phospho-AKT antibody. Data are from representative gels, with similar results obtained in 3 separate culture preparations.
as §5

p38-MAPK = assay: Phospho-p38 MAP kinase Western blot in cardiomyocytes; type: cell-based, rat; conditions: rPMT 24 hr; sorbitol 5 min positive control
Protocol: as §1, §3

JNK = assay: Phospho-JNK Western blot in cardiomyocytes; type: cell-based, rat; conditions: rPMT 24 hr; sorbitol 5 min positive control
Protocol: as §1, §3

COc1cc2ncnc(Nc3cccc(Cl)c3)c2cc1OC [AG1478, reference compound]
effect on EGF receptor-mediated ERK phosphorylation (ERK1/2; AG1478 2 μM, EGF 50 ng/ml 5 min): effectively blocks
effect on ERK phosphorylation/activation by rPMT (ERK1/2): only a very minor reduction
effect on ERK activation by EGF [1]: marked effect to prevent ERK activation
effect on ERK activation by rPMT [1]: marked effect to prevent ERK activation

CN(C)CCCn1cc(C2=C(c3c[nH]c4ccccc34)C(=O)NC2=O)c2ccccc21 [GF109203, reference compound]
effect on ERK phosphorylation/activation by rPMT (ERK1/2): markedly inhibited
effect on appearance of the more highly phosphorylated PKC-ε band induced by NE or PMA (PKC-ε; inhibitor 5 μM, 30 min prior to stimulation): prevented
inhibition of PMA-dependent down-regulation of PKC isoforms (PKC isoforms): did not
effect on inhibitory modulation of AKT phosphorylation by PMA (AKT; GF109203 5 μM, 5 min PMA): prevented

COc1ccc2c(c1)c(C1=C(c3c[nH]c4ccccc34)C(=O)NC1=O)cn2CCCN(C)C [Go6983, reference compound]
inhibition of PMA-dependent down-regulation of PKC isoforms (PKC isoforms): completely inhibited
effect on negative regulation of AKT by rPMT (AKT; Go6983 5 μM, 24 hr): abrogates

CCCCCCCCCCCCCC(=O)O[C@@H]1[C@@H](C)[C@@]2(O)[C@@H](C=C(CO)C[C@]3(O)C(=O)C(C)=C[C@@H]23)[C@@H]2C(C)(C)[C@]12OC(C)=O [PMA, reference compound]
phospho-PKC immunoreactivity during pharmacologic down-regulation (PKC-ε; 24 hrs): drastically reduced
PKC-ε phosphorylation/activation (phospho-PKC band pattern) (PKC-ε; NE 10 μM or PMA 100 nM for 5 min): slower mobility, more-highly phosphorylated species
basal AKT phosphorylation after acute treatment (AKT; 5 min, PMA 100 nM, NE 10 μM): reduce basal AKT phosphorylation
basal AKT phosphorylation after 24 hr treatment (AKT; 24 hr, relative to control cultures): reduced

OC[C@@H](O)[C@@H](O)[C@H](O)[C@@H](O)CO [sorbitol, reference compound]
magnitude of p38-MAPK activation (p38-MAPK): strong activation
magnitude of JNK activation (JNK): strong activation

EGF: epidermal growth factor
AKT activation in control cultures (AKT; EGF 50 ng/ml, 5 min): robust

Reference: patent US20030134774A1, “Methods for inhibiting cardiac disorders” (priority 2001, published 2003)
